Experiments:
[1] = target: T1, LXRβ (Homo sapiens, UniProt P55055); test: LXR Gal4 reporter transient transfection assay (mammalian two-hybrid, HEK293), LXRβ; type: cell-based; settings: ligand-binding domain (LBD) of LXRβ, HEK293; read-out: LBD-M2H Gal4β
T1 construct: LXRβ (amino acids 156-461); expressed in transfected cells; host or cells: HEK293
T1 sequence (P55055 156-460): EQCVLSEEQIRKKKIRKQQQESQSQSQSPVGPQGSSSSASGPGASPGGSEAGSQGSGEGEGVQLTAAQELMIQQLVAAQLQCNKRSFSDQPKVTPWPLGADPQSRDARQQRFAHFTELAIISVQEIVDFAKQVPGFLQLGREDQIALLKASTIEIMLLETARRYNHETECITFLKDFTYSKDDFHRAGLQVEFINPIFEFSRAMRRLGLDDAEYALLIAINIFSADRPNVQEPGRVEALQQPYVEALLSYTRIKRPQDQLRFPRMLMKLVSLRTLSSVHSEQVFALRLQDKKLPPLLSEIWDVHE
Experimental: LXRα and LXRβ activity status was determined via detection of interaction with coactivator and corepressor proteins in mammalian two-hybrid experiments (M2H). For this, via transient transfection the full length (FL) proteins of LXRα (amino acids 1-447; NP005684; SEQ ID NO:1) or LXRβ-(amino acids 1-461; NP009052; SEQ ID NO:2) or the ligand-binding domains (LBD) of LXRα (amino acids 155-447 SEQ ID NO:3) or LXRβ (amino acids 156-461; SEQ ID NO:4) were expressed from pCMV-AD (Stratagene) as fusions to the transcriptional activation domain of NFkB. As cofactors, domains of either the steroid receptor coactivator 1 (SRC1; amino acids 552-887; SEQ ID NO:5) or of the corepressor NCoR (amino acids 1906-2312; NP006302; SEQ ID NO:6) were expressed as fusions to the DNA binding domain of the yeast transcription factor GAL4 (from pCMV-BD; Stratagene). Interaction was monitored via activation of a coexpressed Firefly Luciferase Reporter gene under control of a promoter containing repetitive GAL4 response elements (vector pFRLuc; Stratagene). Transfection efficiency was controlled via cotransfection of constitutively active pRL-CMV Renilla reniformis luciferase reporter (Promega). HEK293 cells were grown in minimum essential medium (MEM) with 2 mM L-glutamine and Earle's balanced salt solution supplemented with 8.3% fetal bovine serum, 0.1 mM non-essential amino acids, 1 mM sodium pyruvate, at 37° C. in 5% CO2. 3.5×10^4 cells/well were plated in 96-well cell culture plates in growth medium supplemented with 8.3% fetal bovine serum for 16-20 h to ˜90% confluency. For transfection, medium was taken off and LXR and cofactor expressing plasmids as well as the reporter plasmids are added in 30 μL OPTIMEM/well including polyethylene-imine (PEI) as vehicle. Typical amounts of plasmids transfected/well: pCMV-AD-LXR (5 ng), pCMV-BD-cofactor (5 ng), pFR-Luc (100 ng), pRL-CMV (0.5 ng). Compound stocks were prepared in DMSO, prediluted in MEM to a total volume of 120 μL, and added 4 h after addition of the transfection mixture (final vehicle concentration not exceeding 0.2%). Cells were incubated for additional 16 h, lysed for 10 min in 1×Passive Lysis Buffer (Promega) and Firefly and Renilla luciferase activities were measured sequentially in the same cell extract using buffers containing D-luciferine and coelenterazine, respectively. Measurements of luminescence were done in a BMG-luminometer.
The potencies of Compound 21/3 and its analog, Compound pre-6/3, against LXRα and LXRβ were evaluated in biochemical binding assays, cellular mammalian two-hybrid (M2H) interaction assays evaluating nuclear receptor co-repressor (NCOR) recruitment, and cellular reporter assays evaluating transcriptional activity (Table 5).

[2] = target: T2, GST-LXRβ ligand-binding domain (Homo sapiens, UniProt P55055); test: TR-FRETβ activity assay (NCoA3 coactivator peptide recruitment); type: biochemical; settings: 1 μM 24(S)-25-epoxycholesterol prestimulation
T2 construct: amino acids 156-461; NP009052; made in house; host or cells: E. coli
T2 sequence (P55055 156-460 limits assumed): T1 sequence (P55055 156-460)
Method in brief: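 E. coli-expressed GST-LXRβ LBD (aa 156-461, 76 nM) with biotinylated NCoA3 peptide (400 nM) in Tris/HCl pH 6.8 containing 1 μM 24(S)-25-epoxycholesterol agonist. Compounds tested at 50 μM down to 0.002 μM in triplicate. TR-FRET (Tb cryptate/XL665, ex 340, em 615/665 nm) read after 1 h at 4° C.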

| SMILES | EC50 [1] [nM] | EC50 [2] [nM] |
| --- | --- | --- |
| Cc1ccc(S(=O)(=O)n2c(-c3ccc(CC(C)(C)C(=O)O)s3)c(-c3ccsc3C#N)c3ccccc32)cc1 [3/16] | 100 to 1000 | 1000 to 10000 |
| N#Cc1sccc1-c1c(-c2cccs2)n(S(=O)(=O)c2ccc(Cl)cc2)c2cc(OCCCC(=O)O)ccc12 [15/4] | < 100 | 1000 to 10000 |
| N#Cc1sccc1-c1c(-c2cccs2)n(S(=O)(=O)c2ccc(Cl)cc2)c2cc(O)ccc12 [13/1] | < 100 | 1000 to 10000 |
| COc1ccc(S(=O)(=O)n2c(-c3ccccc3)c(-c3cc(C)sc3C#N)c3ccccc32)cc1 [20/23] | 100 to 1000 | 1000 to 10000 |
| Cc1ccc(S(=O)(=O)n2c(-c3ccc(/C=C/C(=O)O)s3)c(-c3ccsc3C#N)c3ccccc32)cc1 [3/19] | 100 to 1000 | 1000 to 10000 |
| Cc1ccc(S(=O)(=O)n2c(-c3cccc(C(C)(C)C(=O)O)c3)c(-c3ccsc3C#N)c3ccccc32)cc1 [3/20] | < 100 | 1000 to 10000 |
| N#Cc1sccc1-c1c(-c2cccs2)n(S(=O)(=O)c2ccc(F)cc2F)c2ccccc12 [20/12] | < 100 | 1000 to 10000 |
| N#Cc1cscc1-c1c(-c2cccs2)n(S(=O)(=O)c2ccc(Cl)cc2)c2ccccc12 [20/4] | < 100 | 1000 to 10000 |
| Cn1cnc(S(=O)(=O)n2c(-c3cccs3)c(-c3ccsc3C#N)c3ccccc32)c1 [1/28] | < 100 | 1000 to 10000 |
| N#Cc1sccc1-c1c(-c2ccc(F)cc2)n(S(=O)(=O)c2ccc(Cl)cc2)c2ccccc12 [26/1] | < 100 | 1000 to 10000 |
| N#Cc1sccc1-c1c(-c2cccc(N3CC(C(=O)O)C3)c2)n(S(=O)(=O)c2ccccc2)c2ccc(F)cc12 [3/9] | < 100 | 1000 to 10000 |
| Cc1ccc(S(=O)(=O)n2c(-c3cc(C4CC4C(=O)O)cs3)c(-c3ccsc3C#N)c3ccccc32)cc1 (centres unmarked) [3/17] | < 100 | 1000 to 10000 |
| N#Cc1sccc1-c1c(-c2cccc(N3CCC(C(=O)O)C3)c2)n(S(=O)(=O)c2ccc(Cl)cc2)c2ccccc12 (centres unmarked) [30/11] | < 100 | 100 to 1000 |
| N#Cc1sccc1-c1c(-c2cccs2)n(S(=O)(=O)C2CCCCC2)c2ccccc12 [Compound 24] | < 100 | 1000 to 10000 |
| COc1ccc(S(=O)(=O)n2c(-c3ccccc3)c(-c3ccsc3C)c3ccccc32)cc1 [20/21] | < 100 | 1000 to 10000 |
| N#Cc1sccc1-c1c(-c2cccs2)n(S(=O)(=O)c2ccc(Cl)cc2)c2ccc(OCCCCC(=O)O)cc12 [15/2] | 100 to 1000 | > 10000 |
| CS(=O)(=O)NC(=O)C1CC1c1cccc(-c2c(-c3ccsc3C#N)c3ccccc3n2S(=O)(=O)c2ccc(Cl)cc2)c1 (centres unmarked) [32/1] | < 100 | 100 to 1000 |
| Cc1ccc(S(=O)(=O)n2c(-c3cccc(-c4cccc(C(=O)O)c4)c3)c(-c3ccsc3C#N)c3ccccc32)cc1 [30/1] | < 100 | 100 to 1000 |
| COc1ccc(S(=O)(=O)n2c(-c3ccccc3)c(-c3ccsc3OC)c3ccccc32)cc1 [20/22] | 100 to 1000 | 100 to 1000 |
| COc1ccc(S(=O)(=O)n2c(-c3ccccc3)c(C3=C(C#N)c4ccccc4CC3)c3ccccc32)cc1 [20/19] | 100 to 1000 | > 10000 |
| N#Cc1ccc(OCC(=O)O)cc1-c1c(-c2cccs2)n(S(=O)(=O)c2ccc(Cl)cc2)c2ccccc12 [21/1] | 1000 to 10000 | 1000 to 10000 |
| N#Cc1sccc1-c1c(-c2cccs2)n(S(=O)(=O)c2ccc(Cl)cc2)c2ccccc12 [20/13] | < 100 | 100 to 1000 |

| SMILES | EC50 [1] [nM] | EC50 [2] [nM] |
| --- | --- | --- |
| N#Cc1sccc1-c1c(-c2ccc(C3CC3C(=O)O)s2)n(S(=O)(=O)c2ccc(Cl)cc2)c2ccccc12 (centres unmarked) [30/8] | 100 to 1000 | 1000 to 10000 |
| COc1ccc(S(=O)(=O)n2c(-c3ccccc3)c(C3=C(C#N)CCCC3)c3ccccc32)cc1 [20/16] | 100 to 1000 | 1000 to 10000 |
| CS(=O)(=O)c1ccccc1-c1c(-c2cccs2)n(S(=O)(=O)c2ccc(Cl)cc2)c2ccccc12 [20/5] | 100 to 1000 | 1000 to 10000 |
| N#Cc1sccc1-c1c(-c2cccs2)n(S(=O)(=O)c2ccc(Cl)cc2)c2ccc(OCCCC(=O)O)cc12 [15/1] | 100 to 1000 | 1000 to 10000 |
| N#Cc1sccc1-c1c(-c2ccccc2)n(S(=O)(=O)c2cccnc2)c2ccccc12 [1/41] | < 100 | 1000 to 10000 |
| N#Cc1sccc1-c1c(-c2cc(Cl)cc(C3CC3C(=O)O)c2)n(S(=O)(=O)c2ccc(Cl)cc2)c2ccccc12 (centres unmarked) [30/9] | < 100 | 1000 to 10000 |
| N#Cc1sccc1-c1c(-c2cccs2)n(S(=O)(=O)c2cccc3ccccc23)c2ccccc12 [1/27] | < 100 | 1000 to 10000 |
| N#Cc1sccc1-c1c(-c2cccc(OCCC(=O)O)n2)n(S(=O)(=O)c2ccc(Cl)cc2)c2ccccc12 [Compound 31] | 100 to 1000 | 1000 to 10000 |
| Cc1ccc(S(=O)(=O)n2c(-c3cccc(C4CC4C(=O)O)c3)c(-c3ccc(F)cc3C#N)c3ccccc32)cc1 (centres unmarked) [30/15] | 100 to 1000 | 1000 to 10000 |
| N#Cc1sccc1-c1c(-c2ccccc2)n(S(=O)(=O)c2ccc(OCC(=O)O)cc2)c2ccccc12 [Compound 27] | 100 to 1000 | 1000 to 10000 |
| COc1ccc2c(-c3ccsc3C#N)c(-c3cccs3)n(S(=O)(=O)c3ccc(Cl)cc3)c2c1 [1/40] | < 100 | 1000 to 10000 |
| Cc1ccc(S(=O)(=O)n2c(-c3cccc(-c4cccc(C(C)(C)C(=O)O)c4)c3)c(-c3ccsc3C#N)c3ccccc32)cc1 [30/2] | 100 to 1000 | 1000 to 10000 |
| N#Cc1sccc1-c1c(-c2cccs2)n(S(=O)(=O)c2ccc(Cl)cc2)c2cc(OCCCCC(=O)O)ccc12 [15/5] | < 100 | 1000 to 10000 |
| N#Cc1ccncc1-c1c(-c2cccs2)n(S(=O)(=O)c2ccc(Cl)cc2)c2ccccc12 [20/2] | < 100 | 1000 to 10000 |
| Cc1cc(C)c(S(=O)(=O)n2c(-c3cccs3)c(-c3ccsc3C#N)c3ccccc32)c(C)c1 [1/26] | < 100 | 1000 to 10000 |
| N#Cc1sccc1-c1c(-c2cccc(OCC(=O)O)c2)n(S(=O)(=O)c2ccc(Cl)cc2)c2ccccc12 [3/51] | 100 to 1000 | 1000 to 10000 |
| N#Cc1cc(F)ccc1-c1c(-c2cccs2)n(S(=O)(=O)c2ccc(Cl)cc2)c2ccccc12 [20/6] | < 100 | 100 to 1000 |
| N#Cc1sccc1-c1c(-c2cccs2)n(S(=O)(=O)c2ccc(F)cc2)c2ccccc12 [20/11] | < 100 | 100 to 1000 |
| N#Cc1sccc1-c1c(-c2cccc(C3CC3C(=O)O)c2)n(S(=O)(=O)C2CC2)c2ccccc12 (centres unmarked) [30/12] | 100 to 1000 | 1000 to 10000 |
| COC(=O)CCc1ccc(S(=O)(=O)n2c(-c3cccs3)c(-c3ccsc3C#N)c3ccccc32)cc1 [20/15] | 100 to 1000 | 100 to 1000 |
| N#Cc1c(OCC(=O)O)cccc1-c1c(-c2cccs2)n(S(=O)(=O)c2ccc(Cl)cc2)c2ccccc12 [21/2] | 1000 to 10000 | 1000 to 10000 |

From patent US20260083704A1, “LXR MODULATORS WITH BICYCLIC CORE MOIETY FOR TREATING DYSLIPIDEMIAS” (OrsoBio, Inc., priority 2022, published 2026)
